Like-named read-outs stand apart in the source and are kept apart here. Square brackets hold non-standard residues; d marks the D form. Ends that are not written are not given here. Peptide text beside a SMILES is read from it. d(aIle) = CC[C@H](C)[C@@H](N)C(=O)O

A word on the MIC: it is the least concentration at which growth counts as inhibited.

In assay [1] the test system is Streptococcus agalactiae. The assay can be described thus: Inhibition assay on liquid medium, Streptococcus agalactiae in BHI medium. Format: cell-based. As to conditions: peptide at 100 μM; FIG. 12. On the procedure: FIG. 12—Growth of Streptococcus agalactiae in liquid BHI medium in the presence of YydF33-49 (a), YydF33_49AA (b) (SEQ ID NO: 66), YydF33_49VV (c) (SEQ ID NO: 67), YydF33_49II (d) (SEQ ID NO: 68), Peptide-SA1 (e) ([…]), Peptide-SA2 (f) (SEQ ID NO: 63), Peptide-SE (g) (SEQ ID NO: 64) or Peptide-SP (h) (SEQ ID NO: 65) at 100 μM. In bold, epimerized residues.
(§1) Inhibition Assay on Liquid Medium
(§2) An overnight culture of the bacterial strain to be assayed was freshly inoculated to sterile LB liquid medium. After 4 hours of bacterial growth at 37° C., the medium was diluted to 1/10,000 and inoculated into sterile liquid LB or BHI medium. Peptide solution was added ( 1/100) to a final concentration ranging from 0.01 to 100 μM and OD at 600 nm was recorded continuously using a Tecan microplate reader (Infinite® 200 PRO series).

Assay [2] concerns B. subtilis. It is filed as cell-based, Bacillus subtilis. As to conditions: for Growth of B. subtilis in liquid LB medium: OD at 600 nm, FIG. 5B, FIG. 8a.
Source text: (§3) FIG. 5—Activity of YydF18-49 of YydG. (FIG. 5A) Plate growth inhibition assay of B. subtilis in the presence of YydF18-49 or the epimierized product YydFb. (FIG. 5B) Growth of Bacillus subtilis in LB medium in the absence of peptide (□) or in the presence of the YydF18-49 peptide with a free C-terminus: Ac-[…] (SEQ ID No 20) containing either no modification (▪), a D-allo-lle (♦), a D-Val (⋄) or two-epimerized residues: Ac-GLLDESQKLAKVNDLWYF{d-V}KSKENRW{d-I}LGSGH (SEQ ID No 20) (▴). The OD values are the means of 3 independent cultures.
FIG. 8—(A) Growth of B. subtilis in liquid LB medium in the presence of YydF33-49 or YydF33-49DD. B. subtilis was grown in LB medium alone (♦), in the presence of YydF33-49 (□) (SEQ ID NO: 76, top) or YydF33-49DD (▪) (SEQ ID NO: 75, bottom). Each measurement is the mean of three growth experiments with the SD indicated. The epimerized residues are in black. (b) Growth ratio of B. subtilis in presence of YydF18-49 (100 μM) or YydF18-49DD (100, 10 or 1 μM). Ratios were determined by comparison with growth in the absence of peptide. (c) Growth ratio of B. subtilis in presence of YydF33-49 or YydF33-49DD (100, 10, 1, 0.1 or 0.01 μM). Ratios were determined by comparison with bacterial growth in the absence of peptide.
FIG. 9—Growth of B. subtilis in liquid LB medium in the presence of YydF18-49 (□) or after addition (arrow) of the YydF18-49DD (▪) after 3 hours of growth. Each measurement is the mean of three growth experiments with the SD indicated.
FIG. 10—Growth of B. subtilis in liquid LB medium in the presence of […] (a), YydF33_49AA (b) (SEQ ID NO: 66), YydF33_49vv (c) (SEQ ID NO: 67), YydF33_49II (d) (SEQ ID NO: 68), Peptide-SA1 (e) (SEQ ID NO: 62), Peptide-SA2 (f) (SEQ ID NO: 63), Peptide-SE (g) (SEQ ID NO: 64) or Peptide-SP (h) (SEQ ID NO: 65) at 100 μM. In bold, epimerized residues.
as §1, §2

Assay [3] concerns Enterococcus faecalis. The assay can be described thus: Inhibition assay on liquid medium, Enterococcus faecalis in BHI medium. It is filed as cell-based. Particulars: peptide at 100 μM; FIG. 11. The protocol:
FIG. 11—Growth of Enterococcus faecalis in liquid BHI medium in the presence of YydF33-49 (a), YydF33_49AA (b) (SEQ ID NO: 66), YydF33_49VV (c) (SEQ ID NO: 67), YydF33_49II (d) (SEQ ID NO: 68), Peptide-SA1 (e) (SEQ ID NO: 62), Peptide-SA2 (f) (SEQ ID NO: 63), Peptide-SE (g) (SEQ ID NO: 64) or Peptide-SP (h) (SEQ ID NO: 65) at 100 μM. In bold, epimerized residues.
as §1, §2

For assay [4], the system named is B. subtilis. The assay can be described thus: Inhibition assay on solid medium (plate growth inhibition assay). It is filed as cell-based, Bacillus subtilis. As to conditions: 200 μg of peptide spotted, 37° C., FIG. 5A.
Source text: as §3
Inhibition Assay on Solid Medium
An overnight culture of the bacterial strain to be assayed was freshly inoculated to sterile BHI liquid medium. After 4 hours of bacterial growth at 37° C., the medium was diluted to 1/1000 and inoculated into a soft agarose medium pre-heated at 42° C. The agarose medium containing bacteria was overlaid on a previously jellified sterile BHI agarose layer. 200 μg of peptide was spotted onto the plate and bacterial growth proceeded at 37° C.

Take `CC[C@H](C)[C@@H](NC(=O)[C@H](Cc1c[nH]c2ccccc12)NC(=O)[C@H](CCCNC(=N)N)NC(=O)[C@H](CC(N)=O)NC(=O)[C@H](CCC(=O)O)NC(=O)[C@H](CCCCN)NC(=O)[C@H](CO)NC(=O)[C@H](CCCCN)NC(=O)[C@H](NC(=O)[C@H](Cc1ccccc1)NC(=O)[C@H](Cc1ccc(O)cc1)NC(=O)[C@@H](N)Cc1c[nH]c2ccccc12)C(C)C)C(=O)N[C@@H](CC(C)C)C(=O)NCC(=O)N[C@@H](CO)C(=O)NCC(=O)N[C@@H](Cc1c[nH]cn1)C(=O)O` [YydF33-49DD] (H-WYF[dV]KSKENRW[d(aIle)]LGSGH-OH; N-terminus and C-terminus assumed): the “Growth of Streptococcus agalactiae in liquid BHI medium” value (shortened to “Growth of Streptococcus agalactiae”) in assay [1] was “inhibited”. Also, in assay [2], the minimal inhibitory concentration (MIC) was less than 1 µM and the “Growth of B. subtilis in liquid LB medium” value (from here on “Growth … in liquid LB medium”) is reported as “inhibit bacterial growth”.

Regarding WYFVKSKQNRWVVGSGH (Peptide-SE), in assay [1], the “Growth of Streptococcus agalactiae” value is “inhibitors”. Moreover, the “Growth of Enterococcus faecalis in liquid BHI medium” value (shortened to “Growth of Enterococcus faecalis”) in assay [3] is on record as “totally inhibited”.

In the case of WYFVRNSKNRWVAGSAH (Peptide-SA2), the “Growth of Streptococcus agalactiae” value in assay [1] is “inhibitors”. Further, in assay [3], the “Growth of Enterococcus faecalis” value is reported as “significantly delayed”.

For WYFVKSKENRWILGSGH [YydF33-49], the “Growth … in liquid LB medium” value in assay [2] is recorded as “Only the YYdF33-49DD peptide proved to inhibit bacterial growth”.

In the case of “Ac-GLLDESQKLAKVNDLWYF{d-V}KSKENRW{d-I}LGSGH [YydF18-49DD]”, the “inhibition growth of B. subtilis (plate growth inhibition assay)” value in assay [4] is “strong inhibition growth”. Moreover, the “Growth … in liquid LB medium” value was “bacterial growth inhibition” in assay [2]; “strong and persistent inhibition” in assay [2] (listed as epimerized peptide).

As for WYFVRSSKNRWVAGSAH (Peptide-SA1), the “Growth of Streptococcus agalactiae” value in assay [1] is reported as “inhibitors”. The “Growth of Enterococcus faecalis” value in assay [3] was “significantly delayed”.

With WYFAKSKENRWALGSGH (YydF33_49AA), the “Growth of Streptococcus agalactiae” value in assay [1] is “inhibited”. Further, the “Growth of Enterococcus faecalis” value in assay [3] is reported as “totally inhibited”.

Consider “Ac-GLLDESQKLAKVNDLWYFVKSKENRWILGSGH [YydF18-49]”, for which the “inhibition growth of B. subtilis (plate growth inhibition assay)” value in assay [4] is on record as “devoid of activity”. Further, the “cell density after addition of peptide at mid-exponential phase” value in assay [2] (B. subtilis, liquid LB medium, peptide added after 3 hours of growth, FIG. 9) was “a clear slow down followed by a decrease of the cell density”.

With “WYFIKSKENRWILGSGH (also: epimerized D-residues, positions not given here) [YydF33-49II]”, the “Growth of Streptococcus agalactiae” value in assay [1] is on record as “not”.

“WYFVKSKENRWVLGSGH (also: epimerized D-residues, positions not given here) [YydF33-49VV]”: the “Growth of Streptococcus agalactiae” value in assay [1] was “inhibited”.

Source of the values: patent publication US10981957B2, “Peptides having antimicrobial activity and new enzyme capable of converting L-configured residue in D-configured amino acid in a peptide” (INSTITUT NATIONAL DE RECHERCHE POUR L'AGRICULTURE, …, priority 2015, dated 2021).
